Test results published in the supplement of paper PMC10307832.

Columns and labels:
Assay in all cases: relative viability (nuclei count vs DMSO), 5 days (fraction); higher = more cells survive
[1] = compound: O=C(C[C@H]1NCCC[C@@H]1O)Cn1cnc2cc(Br)c(Cl)cc2c1=O (racemic) [Halofuginone] + Cc1nc(Nc2ncc(C(=O)Nc3c(C)cccc3Cl)s2)cc(N2CCN(CCO)CC2)n1 [Dasatinib] (partner 0.075 µM)
Outline: (§1)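 Lung cancer cell lines in 1536-well plates were dosed by pin tool the day after seeding, either with one drug alone or with a fixed anchor-drug dose plus five library-drug doses (not always all listed) in √10 steps. After 5 days, cells were fixed and their nuclei stained in one step (final 0.05% Triton X-100, 1% formaldehyde, 1 ug/ml Hoechst), then counted on 4× images. Relative viability is the nuclei count in treated wells divided by that in vehicle wells. Values are medians of duplicate plates.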

[2] = compound: O=C(C[C@H]1NCCC[C@@H]1O)Cn1cnc2cc(Br)c(Cl)cc2c1=O (racemic) [Halofuginone] + Cc1nc(NC(=O)N2CCC[C@H]2C(N)=O)sc1-c1ccnc(C(C)(C)C(F)(F)F)c1 [Alpelisib] (partner 2 µM)
Outline: as §1

[3] = compound: O=C(C[C@H]1NCCC[C@@H]1O)Cn1cnc2cc(Br)c(Cl)cc2c1=O (racemic) [Halofuginone] + COc1cccc2cc(-c3nc([C@H]4CC[C@H](C(=O)O)CC4)n4ncnc(N)c34)[nH]c12 [OSI-027] (partner 0.5 µM)
Outline: as §1

[4] = compound: COc1cc2c(Oc3ccc4[nH]c(C)cc4c3F)ncnc2cc1OCCCN1CCCC1 [Cediranib] + CCNC(=O)c1noc(-c2cc(C(C)C)c(O)cc2O)c1-c1ccc(CN2CCOCC2)cc1 [Luminespib] (partner 0.01 µM)
Outline: as §1

UMC-11
relative viability ([1]; first compound 0.001 µM): 0.472 | relative viability ([1]; first compound 0.003162 µM): 0.427 | relative viability ([1]; first compound 0.01 µM): 0.407 | relative viability ([1]; first compound 0.03162 µM): 0.357 | relative viability ([1]; first compound 0.1 µM): 0.293 | relative viability ([2]; first compound 0.001 µM): 1.04 | relative viability ([2]; first compound 0.003162 µM): 0.909 | relative viability ([2]; first compound 0.01 µM): 0.989 | relative viability ([2]; first compound 0.03162 µM): 0.885 | relative viability ([2]; first compound 0.1 µM): 0.457 | relative viability ([3]; first compound 0.001 µM): 0.44 | relative viability ([3]; first compound 0.003162 µM): 0.461 | relative viability ([3]; first compound 0.01 µM): 0.467 | relative viability ([3]; first compound 0.03162 µM): 0.46 | relative viability ([3]; first compound 0.1 µM): 0.368 | relative viability ([4]; first compound 0.04 µM): 1.14 | relative viability ([4]; first compound 0.4 µM): 1.04 | relative viability ([4]; first compound 4 µM): 0.903
